We go through 13 molecules from article PMC7588595, “Small-molecule active pharmaceutical ingredients of approved cancer therapeutics inhibit human aspartate/asparagine-β-hydroxylase” (Bioorganic & Medicinal Chemistry, 2020).

Each structure is given as a SMILES string. Where a name gives a salt, the structure may show the parent alone.

One test has as its target T1, human AspH (His6-AspH315–758) (Homo sapiens, UniProt Q12797).
T1 construct: N-Terminally His6-tagged human AspH315–758 (His6-AspH315–758) was produced in Escherichia coli BL21 (DE3) cells; made in house; host or cells: Escherichia coli BL21 (DE3), pET-28a(+) vector
T1 sequence (Q12797 315-758): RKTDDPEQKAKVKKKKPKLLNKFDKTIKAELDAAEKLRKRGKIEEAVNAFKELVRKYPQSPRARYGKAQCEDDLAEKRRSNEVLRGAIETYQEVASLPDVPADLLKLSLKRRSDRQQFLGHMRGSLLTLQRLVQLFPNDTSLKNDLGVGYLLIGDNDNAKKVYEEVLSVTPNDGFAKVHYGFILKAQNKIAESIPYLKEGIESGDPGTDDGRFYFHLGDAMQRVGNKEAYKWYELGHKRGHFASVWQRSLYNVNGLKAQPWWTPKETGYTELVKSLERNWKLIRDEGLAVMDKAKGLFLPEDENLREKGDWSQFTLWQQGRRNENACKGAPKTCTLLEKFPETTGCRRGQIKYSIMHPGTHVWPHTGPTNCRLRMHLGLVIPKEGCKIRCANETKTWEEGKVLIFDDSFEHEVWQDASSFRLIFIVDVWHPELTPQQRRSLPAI
As to the kind of experiment: SPE-MS AspH inhibition assay (hFX-CP101-119 substrate hydroxylation). The format is biochemical. The note with it: AspH-inhibitor screening, 384-well Plate 1.
Consider `C=CC(=O)Nc1cc(Nc2nccc(-c3cn(C)c4ccccc34)n2)c(OC)cc1N(C)CCN(C)C` [Osimertinib], for which the “Plate 1 (% inhibition)” value is listed as 34.01%.

Turning to `O=C(O)C(=O)O.[NH-][C@@H]1CCCC[C@H]1[NH-].[Pt+2]` [Oxaliplatin], the “Plate 1 (% inhibition)” value was determined as 8.19%.

As to `C=CCc1cccc(/C=N/NC(=O)CN2CCN(Cc3ccccc3)CC2)c1O` [PAC-1], the “Plate 1 (% inhibition)” value was 3.72%.

Consider `C=CC(=O)N1CCC[C@@H](n2nc(-c3ccc(Oc4ccccc4)cc3)c3c(N)ncnc32)C1` [PCI-32765_Ibrutinib], for which the “Plate 1 (% inhibition)” value came out at 0.65%.

With `CC(=O)c1c(C)c2cnc(Nc3ccc(N4CCNCC4)cn3)nc2n(C2CCCC2)c1=O` [PD-0332991], the “Plate 1 (% inhibition)” value was 1.12%.

For the molecule `Nc1nccc(-c2c(-c3ccc(F)cc3)ncn2C2CCCCC2)n1` [PF670462], the “Plate 1 (% inhibition)” value came out at 40.03%.

For the molecule `Nc1ncnc2c1c(COc1cccc(Cl)c1)nn2C1CCOCC1` [PF4800567 hydrochloride], the “Plate 1 (% inhibition)” value was -0.85%.

Regarding `CN(c1ccccc1CNc1nc(Nc2ccc3c(c2)CC(=O)N3)ncc1C(F)(F)F)S(C)(=O)=O` [PF 431396], the “Plate 1 (% inhibition)” value was 1.90%.

For the molecule `Cn1cc(-c2[nH]c3cc(NC(=O)[C@H](N)C4CCCCC4)cc4c3c2C=NNC4=O)cn1` [PF 477736], the “Plate 1 (% inhibition)” value is -54.30%.

With `O=C(Nc1cccnc1)N1CCC(Cc2cccc(Oc3ccc(C(F)(F)F)cn3)c2)CC1` [PF-3845], the “Plate 1 (% inhibition)” value is given as 5.62%.

Take `C[C@@H](Oc1cc(-c2cnn(C3CCNCC3)c2)cnc1N)c1c(Cl)ccc(F)c1Cl` [PF-2341066 (Crizotinib)]: the “Plate 1 (% inhibition)” value was -4.19%.

Regarding `COc1ccc(-c2cc3c(C)nc(N)nc3n([C@H]3CC[C@H](OCCO)CC3)c2=O)cn1` [PF-04691502], the “Plate 1 (% inhibition)” value is given as -6.58%.

As to `CCc1cncnc1N1CCN(Cc2nc3ccc(C(F)(F)F)cc3[nH]2)CC1` [PF-04708671], the “Plate 1 (% inhibition)” value was -5.43%.

Staying with this test, now noted: AspH-inhibitor screening, 384-well Plate 1, substrate conversion.
In the case of `C=CC(=O)Nc1cc(Nc2nccc(-c3cn(C)c4ccccc34)n2)c(OC)cc1N(C)CCN(C)C` [Osimertinib], the “Plate 1 (% conversion)” value stood at 34.05%.

`O=C(O)C(=O)O.[NH-][C@@H]1CCCC[C@H]1[NH-].[Pt+2]` [Oxaliplatin]: the “Plate 1 (% conversion)” value is recorded as 45.97%.

Consider `C=CCc1cccc(/C=N/NC(=O)CN2CCN(Cc3ccccc3)CC2)c1O` [PAC-1], for which the “Plate 1 (% conversion)” value is reported as 48.03%.

With `C=CC(=O)N1CCC[C@@H](n2nc(-c3ccc(Oc4ccccc4)cc3)c3c(N)ncnc32)C1` [PCI-32765_Ibrutinib], the “Plate 1 (% conversion)” value was found to be 49.45%.

For `CC(=O)c1c(C)c2cnc(Nc3ccc(N4CCNCC4)cn3)nc2n(C2CCCC2)c1=O` [PD-0332991], the “Plate 1 (% conversion)” value was determined as 49.23%.

For `Nc1nccc(-c2c(-c3ccc(F)cc3)ncn2C2CCCCC2)n1` [PF670462], the “Plate 1 (% conversion)” value is recorded as 31.27%.

Regarding `Nc1ncnc2c1c(COc1cccc(Cl)c1)nn2C1CCOCC1` [PF4800567 hydrochloride], the “Plate 1 (% conversion)” value is reported as 50.14%.

As for `CN(c1ccccc1CNc1nc(Nc2ccc3c(c2)CC(=O)N3)ncc1C(F)(F)F)S(C)(=O)=O` [PF 431396], the “Plate 1 (% conversion)” value came to 48.87%.

Regarding `Cn1cc(-c2[nH]c3cc(NC(=O)[C@H](N)C4CCCCC4)cc4c3c2C=NNC4=O)cn1` [PF 477736], the “Plate 1 (% conversion)” value is 74.83%.

`O=C(Nc1cccnc1)N1CCC(Cc2cccc(Oc3ccc(C(F)(F)F)cn3)c2)CC1` [PF-3845]: the “Plate 1 (% conversion)” value turned out to be 47.15%.

With `C[C@@H](Oc1cc(-c2cnn(C3CCNCC3)c2)cnc1N)c1c(Cl)ccc(F)c1Cl` [PF-2341066 (Crizotinib)], the “Plate 1 (% conversion)” value is recorded as 51.68%.

`COc1ccc(-c2cc3c(C)nc(N)nc3n([C@H]3CC[C@H](OCCO)CC3)c2=O)cn1` [PF-04691502]: the “Plate 1 (% conversion)” value is on record as 52.79%.

Take `CCc1cncnc1N1CCN(Cc2nc3ccc(C(F)(F)F)cc3[nH]2)CC1` [PF-04708671]: the “Plate 1 (% conversion)” value is reported as 52.26%.

The test is the same for the next values; noted with them: AspH-inhibitor screening, Plate 1-duplicate.
For `C=CC(=O)Nc1cc(Nc2nccc(-c3cn(C)c4ccccc34)n2)c(OC)cc1N(C)CCN(C)C` [Osimertinib], the “Plate 1-duplicate (% inhibition)” value was found to be 33.73%.

Regarding `O=C(O)C(=O)O.[NH-][C@@H]1CCCC[C@H]1[NH-].[Pt+2]` [Oxaliplatin], the “Plate 1-duplicate (% inhibition)” value is 11.28%.

For `C=CCc1cccc(/C=N/NC(=O)CN2CCN(Cc3ccccc3)CC2)c1O` [PAC-1], the “Plate 1-duplicate (% inhibition)” value is listed as -0.37%.

On to `C=CC(=O)N1CCC[C@@H](n2nc(-c3ccc(Oc4ccccc4)cc3)c3c(N)ncnc32)C1` [PCI-32765_Ibrutinib], for which the “Plate 1-duplicate (% inhibition)” value was -9.59%.

Turning to `CC(=O)c1c(C)c2cnc(Nc3ccc(N4CCNCC4)cn3)nc2n(C2CCCC2)c1=O` [PD-0332991], the “Plate 1-duplicate (% inhibition)” value is listed as -1.13%.

On to `Nc1nccc(-c2c(-c3ccc(F)cc3)ncn2C2CCCCC2)n1` [PF670462], for which the “Plate 1-duplicate (% inhibition)” value worked out at 29.89%.

As for `Nc1ncnc2c1c(COc1cccc(Cl)c1)nn2C1CCOCC1` [PF4800567 hydrochloride], the “Plate 1-duplicate (% inhibition)” value stood at 0.27%.

With `CN(c1ccccc1CNc1nc(Nc2ccc3c(c2)CC(=O)N3)ncc1C(F)(F)F)S(C)(=O)=O` [PF 431396], the “Plate 1-duplicate (% inhibition)” value is reported as -4.64%.

With `Cn1cc(-c2[nH]c3cc(NC(=O)[C@H](N)C4CCCCC4)cc4c3c2C=NNC4=O)cn1` [PF 477736], the “Plate 1-duplicate (% inhibition)” value was -54.03%.

Regarding `O=C(Nc1cccnc1)N1CCC(Cc2cccc(Oc3ccc(C(F)(F)F)cn3)c2)CC1` [PF-3845], the “Plate 1-duplicate (% inhibition)” value is on record as -12.27%.

For the molecule `C[C@@H](Oc1cc(-c2cnn(C3CCNCC3)c2)cnc1N)c1c(Cl)ccc(F)c1Cl` [PF-2341066 (Crizotinib)], the “Plate 1-duplicate (% inhibition)” value is given as -4.98%.

With `COc1ccc(-c2cc3c(C)nc(N)nc3n([C@H]3CC[C@H](OCCO)CC3)c2=O)cn1` [PF-04691502], the “Plate 1-duplicate (% inhibition)” value is recorded as -5.13%.

On to `CCc1cncnc1N1CCN(Cc2nc3ccc(C(F)(F)F)cc3[nH]2)CC1` [PF-04708671], for which the “Plate 1-duplicate (% inhibition)” value is given as -7.38%.

Staying with this test, now noted: AspH-inhibitor screening, Plate 1-duplicate, substrate conversion.
In the case of `C=CC(=O)Nc1cc(Nc2nccc(-c3cn(C)c4ccccc34)n2)c(OC)cc1N(C)CCN(C)C` [Osimertinib], the “Plate 1-duplicate (% conversion)” value amounted to 35.31%.

On to `O=C(O)C(=O)O.[NH-][C@@H]1CCCC[C@H]1[NH-].[Pt+2]` [Oxaliplatin], for which the “Plate 1-duplicate (% conversion)” value was found to be 46.45%.

Take `C=CCc1cccc(/C=N/NC(=O)CN2CCN(Cc3ccccc3)CC2)c1O` [PAC-1]: the “Plate 1-duplicate (% conversion)” value was determined as 52.23%.

On to `C=CC(=O)N1CCC[C@@H](n2nc(-c3ccc(Oc4ccccc4)cc3)c3c(N)ncnc32)C1` [PCI-32765_Ibrutinib], for which the “Plate 1-duplicate (% conversion)” value worked out at 56.80%.

Consider `CC(=O)c1c(C)c2cnc(Nc3ccc(N4CCNCC4)cn3)nc2n(C2CCCC2)c1=O` [PD-0332991], for which the “Plate 1-duplicate (% conversion)” value is recorded as 52.60%.

As to `Nc1nccc(-c2c(-c3ccc(F)cc3)ncn2C2CCCCC2)n1` [PF670462], the “Plate 1-duplicate (% conversion)” value is reported as 37.22%.

`Nc1ncnc2c1c(COc1cccc(Cl)c1)nn2C1CCOCC1` [PF4800567 hydrochloride]: the “Plate 1-duplicate (% conversion)” value came to 51.91%.

Take `CN(c1ccccc1CNc1nc(Nc2ccc3c(c2)CC(=O)N3)ncc1C(F)(F)F)S(C)(=O)=O` [PF 431396]: the “Plate 1-duplicate (% conversion)” value is listed as 54.34%.

As for `Cn1cc(-c2[nH]c3cc(NC(=O)[C@H](N)C4CCCCC4)cc4c3c2C=NNC4=O)cn1` [PF 477736], the “Plate 1-duplicate (% conversion)” value is given as 78.84%.

On to `O=C(Nc1cccnc1)N1CCC(Cc2cccc(Oc3ccc(C(F)(F)F)cn3)c2)CC1` [PF-3845], for which the “Plate 1-duplicate (% conversion)” value was found to be 58.13%.

For the molecule `C[C@@H](Oc1cc(-c2cnn(C3CCNCC3)c2)cnc1N)c1c(Cl)ccc(F)c1Cl` [PF-2341066 (Crizotinib)], the “Plate 1-duplicate (% conversion)” value is given as 54.51%.

For `COc1ccc(-c2cc3c(C)nc(N)nc3n([C@H]3CC[C@H](OCCO)CC3)c2=O)cn1` [PF-04691502], the “Plate 1-duplicate (% conversion)” value stood at 54.58%.

`CCc1cncnc1N1CCN(Cc2nc3ccc(C(F)(F)F)cc3[nH]2)CC1` [PF-04708671]: the “Plate 1-duplicate (% conversion)” value is on record as 55.70%.
